Test results published in US9169203B2, “Sulfoxide-based surfactants” (Novus International Inc., priority 2012, dated 2015).

What was measured:
[1] = Critical micelle concentration (CMC), Wilhelmy plate method; assay type: physicochemical; settings: in water at 25° C. and atmospheric pressure
Protocol: (§1) To determine whether the sulfoxide-based compounds synthesized in Examples 1-9 had surfactant properties, the critical micelle concentration (CMC), surface tension, and solubility were determined. The Wilhelmy plate method was used to determine the equilibrium surface or interfacial tension at an air-liquid interface. A Cahn DCA 322 high-sensitivity balance was used to perform the measurement. Glass slides manufactured by Corning with a width of 22 mm and thickness of 0.1 mm were used as probes; the motor speed was set to be 160 μm/sec. […] The measured force was converted to surface tension using the Wilhelmy equation. The CMC was calculated according to standard procedures.
(§2) The following compounds were tested: (1) hexyl 2-hydroxy-4-[…] (R6SO); (2) octyl 2-hydroxy-4-(methylsulfinyl)butanoate (R8SO); (3) a mixture of 70 wt % R8SO and 30 wt % decyl 2-hydroxy-4-(methylsulfinyl)butanoate (R10SO); (4) a mixture of 70 wt % R8SO and 30 wt % dodecyl 2-hydroxy-4-(methylsulfinyl)butanoate (R12SO); (5) 2-hydroxy-4-(methylsulfinyl)-N-octylbutanamide (R8NHSO); (6) a mixture of 60 wt % R8NHSO and 40 wt % 2-hydroxy-4-(methylsulfinyl)-N-decylbutanamide (R10NHSO); (7) a mixture of 75 wt % R8NHSO and 25 wt % 2-hydroxy-4-(methylsulfinyl)-N-dodecylbutanamide (R12NHSO); as well as the commercially available nonionic surfactants (8) Igepal® CO-630, a branched nonylphenol ethoxylate, and two alkyl ethylene oxides, (9) hexaethylene glycol monododecyl ether (C12E6) and (10) hexaethylene glycol monodecyl ether (C10E6).

[2] = Surface tension at air-liquid interface at CMC, Wilhelmy plate method; assay type: physicochemical; settings: 25° C. and atmospheric pressure
Protocol: as §1, §2

[3] = Solubility in water; assay type: physicochemical; settings: in water at 25° C. and atmospheric pressure
Protocol: as §1, §2

[4] = tested on: fresh water algae; test: Fresh water algae growth inhibition test (OECD 201); assay type: cell-based; settings: at 72 hr
Protocol: (§3) The potential hazards of the sulfoxide-based compounds were examined by evaluating the toxicity of R8SO in three standard bioassays (i.e., fresh water algae growth inhibition test, Daphnia acute immobilization test, and fresh water fish acute toxicity test).
The fresh water algae growth inhibition test was conducted according to OECD 201 guidelines. Briefly, exponentially growing fresh water algae were exposed to several concentrations of the test substances in batch cultures over a period of 72 hours. The cultures were allowed unrestricted exponential growth under nutrient sufficient conditions and continuous fluorescent illumination. Three replicates at each test concentration were used. Growth was monitored over time and compared to the average growth of control cultures (with no test substances). Growth and growth inhibition are quantified from measurements of the algal biomass as a function of time.

[5] = tested on: Daphnia; test: Daphnia acute immobilization test (OECD 202); assay type: in vivo; settings: at 48 hr
Protocol: as §3
The Daphnia acute immobilization test was performed according to the OECD 202 guidelines. Briefly, young daphnids, ages less than 24 hours at the start of the test, were exposed to the test substances at a range of concentrations for a period of 48 hours. Generally, at least 20 animals, preferably divided into four groups of five animals each, were tested for each test concentration and for the controls (i.e., no test substance). The Daphnia were not fed during the test. At least 2 mL of test solution were provided for each animal. Temperatures were held between 18 and 22° C., and for each single test the temperature was within ±1° C. Immobilization was recorded at 24 hours and 48 hours, and compared to control values. Those animals that could not swim within 15 seconds after gentle agitation of the test container were considered to be immobile.

[6] = tested on: fresh water fish (i.e., fathead minnows); test: Fresh water fish acute toxicity test (OECD 203); assay type: in vivo; settings: at 96 hr
Protocol: as §3
The fresh water fish acute toxicity test was conduced according to OECD 203 guidelines. For this test, fresh water fish (i.e., fathead minnows) were exposed to a series of concentrations of the test substances for a period of 96 hours. At least seven fishes were used at each test concentration and in the controls. Mortalities were recorded at 24, 48, 72, and 96 hours. Fish were considered dead if there was no visible movement (e.g. gill movements) and if touching of the caudal peduncle produced no reaction. The mortality counts were used to determine LC50, the concentration that killed 50% of the fish.

SMILES | CMC [1] [mM] | Surface Tension at CMC [2] [mN/m] | Solubility [3] | EC50 (50 percent reduction in growth relative to the control) [4] [ppm] | EC50 (concentration at which 50% of the animals were immobilized) [5] [ppm] | LC50 (concentration that killed 50% of the fish) [6] [ppm]
CCCCCCCCCCOCCOCCOCCOCCOCCOCCO [Example C10E6, hexaethylene glycol monodecyl ether, reference compound] | 0.90 | 42 | – | – | – | –
CCCCCCCCCCCCOCCOCCOCCOCCOCCOCCO [Example C12E6, hexaethylene glycol monododecyl ether, reference compound] | 0.087 | 41 | – | – | – | –
CCCCCCCCOC(=O)C(O)CC[S+](C)[O-] (stereo not shown) [Example R8SO, octyl 2-hydroxy-4-(methylsulfinyl)butanoate] | 11.7 | 29 | >50% (wt/wt total) | 175 | 79 | 148

Continued, in another order:

CMC [1] [mM] | Surface Tension at CMC [2] [mN/m] | Solubility [3] | SMILES | EC50 (50 percent reduction in growth relative to the control) [4] [ppm] | EC50 (concentration at which 50% of the animals were immobilized) [5] [ppm] | LC50 (concentration that killed 50% of the fish) [6] [ppm]
120.9 | 33 | >50% (wt/wt total) | CCCCCCOC(=O)C(O)CC[S+](C)[O-] (stereo not shown) [Example R6SO, hexyl 2-hydroxy-4-(methylsulfinyl)butanoate] | – | – | –
10.3 | 29 | >50% (wt/wt total) | CCCCCCCCNC(=O)C(O)CC[S+](C)[O-] (stereo not shown) [Example R8NHSO, 2-hydroxy-4-(methylsulfinyl)-N-octylbutanamide] | – | – | –
